From publication PMC4411110 (PLoS ONE, 2015)
Entries after “also recorded” stand apart in the source; their conditions may differ.

What was measured:
MOG35-55-induced EAE = experiment: EAE mouse model of MS, clinical paralysis score; assay type: in vivo, female C57BL/6 mice; conditions: EAE mice, oral daily from onset of signs, TM5484 5 mg/kg/d, fingolimod 0.5 mg/kg, 6α-methylprednisolone 5 mg/kg
Procedure: (§1) All animal experiments conformed to the National Health Guide for the Care and Use of Laboratory Animals and were approved by the Animal Committee at Tohoku University. Studies were performed on 11-week-old female C57BL/6 mice (n = 8–10, each group) and 10-week-old Lewis rats (n = 6–8, each group), obtained from SJC, Japan SLC (Hamamatsu, Shizuoka, Japan). Animals were housed under a 12h light-dark cycle and given regular chow, MF (Oriental Yeast Co., Ltd.).
Experimental autoimmune encephalomyelitis (EAE) was induced in mice as described previously. Briefly, on day 0, 200 microgramme of myelin oligodendrocyte glycoprotein^35–55 (MOG^35–55) peptide was injected s.c, twice, in the lower and upper back of the mice, in an equal volume of complete Freund’s adjuvant (Hooke Laboratories, Inc.). Next, 200 ng of pertussis toxin (Hooke Laboratories, Inc.) dissolved in PBS was applied i.p. On day 1, another 200 ng of pertussis toxin was administered. For rats, 200 microgramme of myelin basic protein^69-88 (MBP^69-88) was injected (Hooke Laboratories, Inc.) twice, in the lower back on day 0. Animals were scored for motor paralysis on a daily basis. Disease severity was assessed using a scale ranging from 0 to 5 (Hooke Laboratories, Inc.): 0, normal; 1, limp tail; 1.5, Limp tail and hind leg inhibition; 2, Limp tail and weakness of hind legs.; 2.5, Limp tail and dragging of hind legs; 3, Limp tail and complete paralysis of hind legs; 3.5, Limp tail and complete paralysis of hind legs and Hind legs are together on one side of body; 4, Limp tail, complete hind leg and partial front leg paralysis; 4.5, Complete hind and partial front leg paralysis, no movement around the cage; 5, Mouse is spontaneously rolling in the cage. Mice were typically observed for 28 days, during which they will remain chronically paralyzed.

in vitro = conditions: rat
Procedure: (§2) This BBB model was reconstructed by the culture of both primary rat brain micro vascular endothelial cells and rat brain pericytes separated by a macroporous Millicell membrane (24 wells, pore size: 3.0 μm, Millipore, Bedford, MA, USA). Briefly, we pre-incubated the BBB kits at 37 °C in 5% CO2 conditions for 4–5 days, in order to strongly reconstruct the barrier integrity and tight-junctions. To evaluate the barrier integrity and confirm the functionality of the tight-junctions, trans-endothelial electrical resistance (TEER) was measured at day 5-post incubation. Assays were carried out using TEER values in the range of 150-to 300-Ω cm^2 [11]. Once the tight junctions reach a TEER of 300-Ω cm^2, 0.9 mL PBS-based assay medium was added to blank 24-well culture plates. Prior to incubation, selected compounds were diluted in DMSO 100%. The compounds suspended in 0.2 mL assay medium were fortified into the apical side and incubated for 30 min. Next, the medium from both the apical and the basolateral sides were collected and further analyzed by liquid chromatography–mass spectrometry.

[1] = tested on: in vitro model of BBB (primary rat brain micro vascular endothelial cells and rat brain pericytes); experiment: In vitro BBB penetration assay (BBB Kit RBT-24H); conditions: in vitro BBB model, apical to basolateral, 30 min, n = 3
Procedure: as §2

MBP69-88-induced EAE = experiment: EAE rat model of MS, clinical paralysis score; assay type: in vivo; conditions: EAE Lewis rats, from onset of signs, dpi 15; TM5484 5 mg/kg/d, fingolimod 0.5 mg/kg
Procedure: as §1
Experimental autoimmune encephalomyelitis (EAE) was induced in mice as described previously. […] Animals were scored for motor paralysis on a daily basis. Disease severity was assessed using a scale ranging from 0 to 5 (Hooke Laboratories, Inc.): 0, normal; 1, limp tail; 1.5, Limp tail and hind leg inhibition; 2, Limp tail and weakness of hind legs.; 2.5, Limp tail and dragging of hind legs; 3, Limp tail and complete paralysis of hind legs; 3.5, Limp tail and complete paralysis of hind legs and Hind legs are together on one side of body; 4, Limp tail, complete hind leg and partial front leg paralysis; 4.5, Complete hind and partial front leg paralysis, no movement around the cage; 5, Mouse is spontaneously rolling in the cage. […]

[2] = tested on: MOG35-55-induced EAE, motor coordination; experiment: Foot print analysis in EAE mice; assay type: in vivo, female C57BL/6 mice
Procedure: Briefly, to obtain footprints, the hind- and forefeet of the mice were coated with black non-toxic paint. The floor of the open field box was covered with white paper. Each mouse was placed in a corner of the open field and allowed to walk across the paper, leaving a track of footprints. If a mouse didn’t walk forward, the task was considered a failure. For each step parameter, three values were measured from each run, excluding footprints made at the beginning and end of the run where the animal was initiating and finishing movement respectively. The mean value of each set of three values was used for analysis.

[3] = In vitro BBB penetration assay (BBB Kit RBT-24H); conditions: rat
Procedure: as §2

[4] = tested on: spinal cord (lumbar segments); experiment: Histology of spinal cord of EAE mice; assay type: in vivo, female C57BL/6 mice
Excerpt: Mice were perfused in the heart with saline 0.9% followed by neutral-buffered formalin 10% (n = 3-4/group). Slides from different sections of the spinal cord were immersed and fixed overnight in 10% neutral-buffered formalin. Next, samples were transfered and immersed in a 10, 20 and 30% sucrose solution for consecutive nights. Sections were embedded in O.C.T compounds (Sakura Finetek, Japan) for the subsequent immunostaining study. Four sections of the spinal cord from each group were examined. Since the clinical manifestations are typically initiated as limp tail and hind-limb paralysis in this model, we focused on lumbar spinal segments. Frozen specimens were then incubated overnight at room temperature and stained with Cd11b for macrophage infiltration (Abcam), myelin basic protein (MBP) for demyelination, neurofilament non-phosphorylated (SMI-32) for axonal damage, collagen IV for extracellular matrix depositions (Abcam) and fibrinogen (Funakoshi, Japan). Incubation for 2 hs at room temperature in corresponding biotinylated goat secondary antibody was performed. For immunofluorescence, the sections were incubated overnight at room temperature using primary antibody Iba-1 for microglia activation (Wako Chemicals). After wash in PBS, the sections were then incubated in corresponding fluorescent goat secondary antibody (Wako Chemicals). For Cd11b, the number of positive macrophage was quantified as the total cells per selected area. The area of demyelination was calculated as the percentage of negative staining for MBP per selected area. As for axonal damage and collagen IV deposition, the positive staining per selected area was analyzed and calculated as the percentage per total area. For Quantification analysis was assessed by ImageJ TM software (version 1.440, National Institute of Health, Bethesda, MD, USA).

[5] = tested on: gene expression in spinal cord and spleen; experiment: qRT-PCR gene expression in spinal cord and spleen of EAE mice; assay type: in vivo, female C57BL/6 mice
Procedure: Spinal cord was harvested from mice and snap frozen in liquid nitrogen (n = 6–7, each group). Total RNA was extracted from spinal cord and spleen using ISOGEN (Nippon Gene). qRT-PCR analysis was performed as described previously. Briefly, qRT-PCR was performed on a LightCycler rapid thermal cycler system using a LightCycler 480 SYBR Green I Master (Roche Applied Science) according to the manufacturer's instructions. Data were analyzed by using the comparative Ct method as means of relative quantification, normalized to an endogenous reference (b-actin, Actb). The sequences of the primers are described below: […]

C[C@H]1C[C@@H]2[C@H]([C@@H](O)C[C@@]3(C)[C@H]2CC[C@]3(O)C(=O)CO)[C@@]2(C)C=CC(=O)C=C12 [6α-methylprednisolone]
motor paralysis score (MOG35-55-induced EAE): ameliorated the motor paralysis | motor paralysis score (MOG35-55-induced EAE; listed as 6-α methylprednisone): attenuated the paralysis score to the level observed with TM5484

CC(C)NCC(O)COc1cccc2ccccc12 (stereo not shown) [Propanolol]
Papp at 30 min (in vitro): 313 nm/s

O=C(COCC(=O)Nc1ccc(Cl)cc1C(=O)O)Nc1cccc(-c2ccoc2)c1 [TM5441]
apparent permeability coefficient (Papp) [1]: 32.1 x 10^–6 cm/s

CCCCCCCCc1ccc(CCC(N)(CO)CO)cc1 [fingolimod]
paralysis score at the peak of the paralysis (MBP69-88-induced EAE): reduced the paralysis score to a level similar to TM5484 | stride length ([2]; dpi 28, TM5484 5 mg/kg/d, fingolimod 0.5 mg/kg): 5.48 cm | stride length (in words) ([2]; oral administration): significantly preserved the stride length | Papp at 30 min [3]: 560 nm/s | fibrin (fibrinogen) deposition [4]: no changes were observed | collagen IV deposition ([4]; dpi 28): able to ameliorate collagen IV deposition | demyelination (anti-MBP staining) ([4]; dpi 28): reduced | macrophage accumulation and microglia activation (Cd11b and Iba-1 staining) ([4]; dpi 28, TM5484 5 mg/kg/d, fingolimod 0.5 mg/kg/d): significantly reduced; also recorded: ameliorated | motor paralysis score (MOG35-55-induced EAE): ameliorated the motor paralysis; also recorded: attenuated the paralysis score to the level observed with TM5484 | BDNF expression ([5]; spinal cord): did not restore BDNF expression | ChAT expression ([5]; spinal cord): up-regulated ChAT expression | PAI-1 mRNA expression ([5]; spinal cord): no effects | gene expression of inflammatory markers (TNF-α, IL-6, Ccl2, Cd68) ([5]; spinal cord and spleen, dpi 28, treatment from onset of paralysis): able to modulate these inflammatory effects | BDNF expression ([5]; spinal cord, listed as Fingolimod): no effects | expression of IL-10 ([5]; spleen): upregulated
